From patent US7067551B2, “Deacetylase inhibitors” (Novartis AG, priority 2000, dated 2006) come the findings set out here.

Data set [1] relates to H1299 (human lung carcinoma cell). Kind of data set: Monolayer cell growth inhibition, MTS assay. Type of data set: cell-based. Particulars: NCI-H1299, H1299, 72 hours compound treatment, lactate salts. From the text:
(§1) Cell lines H1299 (human lung carcinoma cell) and HCT116 (colon tumor cell) are obtained from the American Type Culture Collection, Rockville, Md. The cell lines are free of Mycoplasma contamination (Rapid Detection System by Gen-Probe, Inc., San Diego, Calif.) and viral contamination (MAP testing by MA BioServices, Inc., Rockville, Md.). The cell lines are propagated and expanded in RPMI 1640 medium containing 10% heat-inactivated FBS (Life Technologies, Grand Island, N.Y.). Cell expansions for implantation are performed in cell factories (NUNC, purchased from Fisher Scientific, Springfield, N.J.). Cells are harvested at 50–90% confluency, washed once with HBSS (Hank's Balanced Salt Solution) containing 10% FBS, and suspended in 100% HBSS.
(§2) Cell proliferation is measured with a commercial MTS kit (Promega, Madision, Wis.) assay using an adaptation of published procedures, for example, that disclosed in Feasibility of drug screening with panels of human tumor cell lines using a microculture tetrazolium assay, Alley M C, et al., Cancer Res. 1988; 48:589–601. Cells are plated in 96-well tissue culture dishes, with top and bottom rows left empty. H1299 and HCT116 cells are suspended in complete media at a density of 5.3×10^3 and 3.6×10^3 cell/mL, respectively, and 190 μl are added per well. Each cell line is added to one half of the plate. Complete medium (200 μL) is added to the top and bottom rows. Twenty-four hours later, 10 μl of MTS solution is added to one of the plates to determine the activity at the time of compound addition (T0). The plate is incubated at 37° C. for 4 hours and the OD490 is measured on a Molecular Devices Thermomax at 490 nm using the Softmax program. The T0 plate serves as a reference for initial activity at the beginning of the experiment.
(§3) Five serial dilutions (1:4) of each compound are made in a 96-deep well plate with the highest concentrations on the edge of plate. Two cell lines are tested with two compounds per plate.0 Ten microliters of each of the five dilutions are added in triplicate and complete medium alone is added to columns six and seven. The plates are incubated at 37° C. for 72 hours. The MTS solution is added (as for the T0 plate) and read four hours later.
(§4) In order to analyze the data, the average background value (media alone) is subtracted from each experimental well; the triplicate values are averaged for each compound dilution. The following formulas are used to calculate percent growth.
Lactate salts of N-hydroxy-3-[4-[[[2-(1H-indol-3-yl)-ethyl]-amino]methyl]phenyl]-2E-2-propenamide (CMD1), N-hydroxy-3-[4-[[(2-hydroxyethyl)[2-(1H-indol-3-yl)ethyl]-amino]methyl]phenyl]-2E-2-propenamide (CMD2), N-hydroxy-3-[4-[[[2-(5-methoxy-1H-indol-3-yl)-ethyl]-amino]methyl]pheny]-2E-2-propenamide (CMD3), N-hydroxy-3-[4-[[[2-(5-fluoro-1H-indol-3-yl)-ethyl]-amino]methyl]phenyl]-2E-2-propenamide (CMD4), N-hydroxy-3-[4-[[[2-(benzofur-3-yl)-ethyl]-amino]methyl]phenyl]-2E-2-propenamide (CMD5) having a purity of higher than 95% are dissolved in pure dimethylsulfoxide (DMSO) to create a stock solution. The stock solution is diluted with 5% dextrose injection, USP, just prior to dosing.

The test system of data set [2] is HCT116 (colon tumor cell). Put plainly: Monolayer cell growth inhibition, MTS assay. Conditions: Homo sapiens, HCT-116, HCT116, 72 hours compound treatment, lactate salts. It counts as cell-based.
Source text: as §1, §2, §3, §4
The stock solution is diluted with 5% dextrose injection, USP, just prior to dosing.

The test system of data set [3] is HDA partially purified from H1299 cells. Kind of data set: HDA enzyme assay, 3H-acetate release from acetylated histone H4 peptide. It counts as biochemical, human. Particulars: HDA partially purified from H1299, 37° C. 1.5 hr.
Protocol: HDA is partially purified from H1299, human non-small cell lung carcinoma cells (obtained from American Type Culture Collection, 12301 Parklawn Drive, Rockville, Md. 20852, USA). Cells are grown to 70–80% confluence in RPMI media in the presence of 10% FCS, harvested and lysed by sonication. The lysate is centrifuged at 23,420 g for 10–15 min, the supernatant is applied to a Hiload 26/10 High performance Q-sepharose column (Amersham Pharmacia Biotech), and equilibrated with a buffer containing 20 mM Tris pH8.0, 1 mM EDTA, 10 mM NH4Cl2, 1 mM μ-Mercaptoethanol, 5% glycerol, 2 μg/mL aprotinin, 1 μg/mL leupeptin, and 400 mM PMSF. Proteins are eluted in 4 mL aliquots with a linear gradient from 0–500 mM NaCl in the above buffer at a flow rate of 2.5 mL/min. Each preparation of partially purified HDA enzyme is titrated to determine the optimal amount needed to obtain a signal to noise ratio of at least 5 to 1. […] The compounds are serially diluted in DMSO to generate stocks at 20-fold of the assay concentrations. Final concentrations of compounds in the assay are 10 μM, 2 μM, 400 nM, 80 nM, and 16 nM with the final percentage of DMSO in each enzyme reaction equaling 0.1%. Each concentration of compound is assayed in duplicate. The substrate used in the reaction is a peptide of amino acid sequence, [sequence], corresponding to the twenty-four N-terminal amino acids of human histone H4, biotinylated at the N-terminus and penta-acetylated, at each lysine residue with ^3H-acetate. To initiate the reaction, the substrate is diluted in 10 μL of Buffer A (100 mM Tris pH 8.0, 2 mM EDTA), added to the enzyme mixture and collected at the bottom of the deep well plate by centrifugation for 5 minutes at 1500 rpm. Following centrifugation, the mixture is incubated at 37° C. for 1.5 hr. The reaction is stopped by the addition of 20 μL of the Stop Buffer (0.5N HCl, 0.08M Acetic Acid). At this point, the assay proceeds to the robotic extraction phase or is frozen for several days at −80° C.
The extraction of enzymatically cleaved ^3H-acetate groups from the reaction mixture is achieved with the solvent TBME (t-butyl methyl ether) using the Tomtec Quadra 96 workstation. A program is written to add 200 μL of TBME to a 96 “deep well” plate. The workstation is programmed to aspirate 50 μL of air followed by 200 μL of TBME and finally another 25 μL of air, which is dispensed into the each well of the plate. The contents of the deep well were mixed thoroughly by pipetting 160 μL up and down 10 times. Before addition of TBME to the reaction mixture, it is necessary to “pre-wet” the pipette tips with TBME to prevent the solvent from dripping during the transfer to the deep well plate. The organic and aqueous phases in the deep well are separated by centrifugation at 1500 rpm for 5 min. Opti-Phase Supermix liquid scintillation cocktail (200 μL) (Wallac) is added to each well of the 96-well Trilux plate (Wallac). […] The Trilux plate is covered with clear film and read on a 1450 MicroBeta Trilux liquid scintillation and luminescence counter (Wallac) with a color/chemical quench and dpm correction.
In order to determine the IC50 values, the data are analyzed on a spreadsheet. The analysis requires a correction for the background luminescence that is accomplished by subtracting the dpm values of wells without ^3H substrate from the experimental wells. […]
Data set [4] deals with A549 non-small cell lung human tumor cell line. Put plainly: A549 tumor xenograft in athymic mice, antitumor activity. Conditions: Example B3 repeated; for Δ MEAN TUMOR VOLUME: ± SEM. It counts as in vivo. The procedure:
as §1, with “The A549 non-small cell” for “Cell lines H1299 (human”, “human” for “carcinoma cell) and HCT116 (colon”, “cell line is purchased” for “cell) are obtained”, “line is” for “lines are”, “HBSS” for “HBSS (Hank's Balanced Salt Solution)”
(§5) Outbred athymic (nu/nu) female mice (“Hsd:Athymic Nude-nu” from Harlan Sprague Dawley, Indianapolis, Ind.) are anesthetized with Metofane (Mallinckrodt Veterinary, Inc., Mundelein, Ill.), and 100 μL of the cell suspension containing 1×10^7 cells is injected subcutaneously into the right axillary (lateral) region of each animal. Tumors are allowed to grow for about 20 days until a volume of ˜100 mm^3 is achieved. At this point, mice bearing tumors with acceptable morphology and size are sorted into groups of eight for the study. The sorting process produces groups balanced with respect to mean and range of tumor size. Antitumor activity is expressed as % T/C, comparing differences in tumor volumes for treatment group (T) to vehicle control group (C).
(§6) CMD1 is administered intravenously, once daily 5×/week for three weeks, at doses of 10, 25, 50, or 100 mg/kg. The final DMSO concentration is 10%. Each test group has eight mice. Tumors are measured, and individual animal body weights recorded.
(§7) Example B3 repeated except CMD2 is used.

In data set [5] the test system is HCT116 colon tumor cell line. Kind of data set: HCT116 tumor xenograft in athymic mice, antitumor activity. Conditions: 34th day; for Δ MEAN TUMOR VOLUME: ± SEM. Type of data set: in vivo. The method, then: as §1, with “The A549 non-small cell” for “Cell lines H1299 (human”, “human” for “carcinoma cell) and HCT116 (colon”, “cell line is purchased” for “cell) are obtained”, “line is” for “lines are”, “HBSS” for “HBSS (Hank's Balanced Salt Solution)”
as §5, §6
(§8) Example B3 is repeated except the HCT116 colon tumor cell line is used in place of the A549 cell line. The HCT116 cell line is also obtained from American Type Culture Collection, Rockville, Md., and the cell line is free of Mycoplasma contamination and viral contamination.
(§9) Example B4 is repeated except the HCT116 colon tumor cell line is used in place of the A549 cell line. The HCT116 is also obtained from American Type Culture Collection, Rockville, Md., and the cell line is free of Mycoplasma contamination and viral contamination.

Data set [6] in a line: Body weight change of A549 tumor-bearing athymic mice. Type of data set: in vivo. Conditions: Example B3 repeated, ± SEM. The method, then: as §5, §6, §7
The nature of data set [7]: Body weight change of HCT116 tumor-bearing athymic mice. Particulars: 34th day, ± SEM. Type of data set: in vivo. The procedure: as §5, §6, §8, §9
Data set [8] has as its system A549. Kind of data set: Annexin V / propidium iodide staining (apoptosis), fluorescence microscopy. Type of data set: cell-based, human. Particulars: for cells exhibiting cell surface staining with annexin V: A549, 24 hour exposure; for cells staining with annexin V and/or propidium iodide: A549, 48 hour treatment. The procedure:
(§10) Annexin V binding was used as a marker for the early stages of apoptosis. A549,HCT116 and Normal Dermal Human Fibroblasts (NDHF) cells are treated separately with four compounds (CMD1, CMD2, CMD3 and CMD4) for 24 or 48 hours, stained with annexin V and compared to cells treated similarly with vehicle (DMSO). Cells are examined by fluorescence microscopy. […] Viability is assessed by the counterstain, propidium iodide. Cells detected by red fluorescence are not viable.

Data set [9] concerns HCT116. The description is as above. Type of data set: cell-based, human. Conditions: for cells exhibiting cell surface staining with annexin V: HCT116, 24 hour exposure; for cells staining with annexin V and/or propidium iodide: HCT116, 48 hour treatment. The procedure: as §10
The test system of data set [10] is Normal Dermal Human Fibroblasts (NDHF). The description is as above. Conditions: NDHF cells. Type of data set: cell-based. The method, then:
as §10

On to `O=C(/C=C/c1ccc(CN(CCO)CCc2c[nH]c3ccccc23)cc1)NO` [CMD2, N-hydroxy-3-[4-[[(2-hydroxyethyl)[2-(1H-indol-3-yl)ethyl]-amino]methyl]phenyl]-2E-2-propenamide], for which the IC50 in data set [1] worked out at 150 nM; in data set [2], 10 nM; in data set [3], 63 nM. The “% T/C” value is reported as 27% in data set [4] (Table B4, A549, 25 mg/kg); 21% in [4] (Table B4, A549, 50 mg/kg); 56% in data set [5] (Table B6, HCT116, 10 mg/kg); 40% in data set [5] (Table B6, HCT116, 25 mg/kg); 13% in data set [5] (Table B6, HCT116, 50 mg/kg); 17% in [5] (Table B6, HCT116, 100 mg/kg). Besides, the “Δ MEAN TUMOR VOLUME” value is given as 37 ± 16 mm^3 in data set [4] (Table B4, A549, 25 mg/kg); 29 ± 15 mm^3 in data set [4] (Table B4, A549, 50 mg/kg); 422 ± 75 mm^3 in data set [5] (Table B6, HCT116, 10 mg/kg); 305 ± 47 mm^3 in data set [5] (Table B6, HCT116, 25 mg/kg); 97 ± 30 mm^3 in [5] (Table B6, HCT116, 50 mg/kg); 132 ± 30 mm^3 in [5] (Table B6, HCT116, 100 mg/kg). The “Δ % BODY WEIGHT” value in [6] (Table B4, A549, 25 mg/kg) is recorded as −4.2 ± 2.5%; in [6] (Table B4, A549, 50 mg/kg) it was −2.9 ± 1.5%; in data set [7] (Table B6, HCT116, 10 mg/kg), −10.2 ± 0.5%; in data set [7] (Table B6, HCT116, 25 mg/kg), −7.0 ± 0.2%; in data set [7] (Table B6, HCT116, 50 mg/kg) it was −7.3 ± 0.3%; in data set [7] (Table B6, HCT116, 100 mg/kg), −9.4 ± 0.4%. The “cells exhibiting cell surface staining with annexin V” value is given as “A small percentage” in [8] and “the majority” in [9]. The “cells staining with annexin V and/or propidium iodide” value (“cells staining” below) in data set [8] and in [9] was “the majority” throughout. The “annexin V staining” value in data set [10] (24 hour exposure) is “do not show noticeable annexin V staining”.
For the compound `COc1ccc2[nH]cc(CCNCc3ccc(/C=C/C(=O)NO)cc3)c2c1` [CMD3, N-hydroxy-3-[4-[[[2-(5-methoxy-1H-indol-3-yl)-ethyl]-amino]methyl]pheny]-2E-2-propenamide], the IC50 is 580 nM in data set [1], 30 nM in data set [2] and 14 nM in data set [3]. Besides, the “cells exhibiting cell surface staining with annexin V” value in data set [8] was “A small percentage”; in data set [9], “the majority”. The “cells staining” value in data set [8] and in data set [9] was “the majority” throughout. Moreover, the “annexin V staining” value in data set [10] (24 hour exposure) is “do not show noticeable annexin V staining”; in data set [10] (48 hour), “limited annexin V staining”.
With `O=C(/C=C/c1ccc(CNCCc2c[nH]c3ccc(F)cc23)cc1)NO` [CMD4, N-hydroxy-3-[4-[[[2-(5-fluoro-1H-indol-3-yl)-ethyl]-amino]methyl]phenyl]-2E-2-propenamide], the figures for the IC50 in data set [1], in data set [2] and in [3] were 280 nM, 30 nM and 14 nM, respectively. Besides, the “cells exhibiting cell surface staining with annexin V” value is “A small percentage” in data set [8] and “the majority” in [9]. Moreover, the “cells staining” value in [8] and in data set [9] was “the majority” throughout. The “annexin V staining” value in data set [10] (24 hour exposure) is given as “do not show noticeable annexin V staining”.
As for `O=C(/C=C/c1ccc(CNCCc2coc3ccccc23)cc1)NO` [CMD5, N-hydroxy-3-[4-[[[2-(benzofur-3-yl)-ethyl]-amino]methyl]phenyl]-2E-2-propenamide], the values for the IC50 in data set [1], in data set [2] and in data set [3] were 180 nM, 30 nM and 16 nM, respectively.
Turning to `Nc1ccccc1NC(=O)c1ccc(CNC(=O)OCc2cccnc2)cc1` [CMDC, reference compound], in data set [1], the IC50 came to 6800 nM.

One may read the IC50 as the point on the concentration scale where inhibition reaches its midpoint.
